Values quoted from earlier work as cited in patent US20260204362A1, “METHOD FOR DETERMINING A TARGET […] COMPOUND COMPRISING A TARGET BIODEGRADABILITY” (BASF SE, priority 2022, published 2026).

conditions: known values for test molecules from the NITE database; OECD 301 (A-F) test setups, measurement uncertainty ca. 10%

SMILES | Biodegradability (data) in % [%]
BrCCCCBr [BrCCCCBr] | 17
CCC(CC)C(=O)OCCOCCOCCOC(=O)C(CC)CC [CCC(CC)C(═O)OCCOCCOCCOC(═O)C(CC)CC] | 81
CCCCN(CCCC)C(=S)[S][Ni][S]C(=S)N(CCCC)CCCC [CCCCN(CCCC)C(═S)S[Ni]SC(═S)N(CCCC)CCCC] | 3
CNCCS(=O)(=O)O [CNCCS(═O)(═O)O] | 62
OCC=CCO [OCC═CCO] | 57
